Experiments:
ATM = biological target: T1, ATM (Homo sapiens, UniProt Q13315); assay: ATM inhibition test (phosphorylation of Chk2 generated by ionizing radiation, AlphaScreen SureFire); format: cell-based; details: phosphorylated Chk2 in NCI-H460 cells, ionizing radiation 8Gy, 1 hour after test compound treatment; read-out: ATM inhibitory activity
T1 construct: detecting phosphorylation of Chk2 in a human non-small cell lung cancer cell line NCI-H460 (ATCC company); host or cells: NCI-H460 human non-small cell lung cancer cells
Method in brief: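 Phosphorylated Chk2 read by AlphaScreen SureFire in human non-small cell lung cancer NCI-H460 cells, 1 hour after 8Gy ionizing radiation at 37° C. Compound added 1 hour before irradiation. Percent inhibition normalised between irradiated and non-irradiated drug-untreated signals.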

[1] = tested on: human non-small cell lung cancer cell line NCI-H460; assay: Cell proliferation inhibition test by sensitivity-enhancing to ionizing radiation (Cell Titer Glo); format: cell-based; details: Homo sapiens, NCI-H460, 120 h, concentration in which SER became 2; NCI-H460 cells, ionizing radiation 2 Gy, cultured 120 hour
Procedure: A human non-small cell lung cancer cell line NCI-H460 (ATCC company) was adjusted so as to be 2×10^3 cells/mL in a RPMI-1640 medium containing penicillin/streptomycin and FBS having a final concentration of 10%, and this was seeded by 100 μL per well in 96-well CellBIND® plates (Corning International Inc.). After 24 hours, the medium of cells was replaced with 100 μL of a medium including serially diluted liquid of the test compound or DMSO having a final concentration of 0.1%. 30 minutes after the medium was replaced, half of the plates were irradiated with ionizing radiation 2 Gy (Faxitron Bioptics, LLC, RX-650 type). The cells of the plates irradiated with ionizing radiation and the plates not being irradiated with ionizing radiation were cultured at 37° C. for 120 hour in 5% CO2. After a Cell Titer Glo reaction liquid of an equal volume was added to each well, the amount of luminescence was measured, according to the instruction book of Cell Titer Glo (Promega Corporation). Since the amount of luminescence is proportional to the ATP concentration in cells, the amount of luminescence was used as an indicator of the number of viable cells. Sensitivity-enhancing effects (SER) to ionizing radiation by the test compound was calculated by the following equation. SER=(amount of luminescence of wells including DMSO having a final concentration of 0.1% in the plates irradiated with ionizing radiation×amount of luminescence of wells including a compound in the plates not being irradiated with ionizing radiation)/(amount of luminescence of wells including the test compound in the plates irradiated with ionizing radiation×amount of luminescence of wells including DMSO having a final concentration of 0.1% in the plates not being irradiated with ionizing radiation)
SER at each compound concentration was plotted by nonlinear regression fit (FitModel (205)) by a sigmoidal dose-response equation using XLfit software (IDBS), and the concentration (SER2) in which SER became 2 was calculated.

T1 sequence (Q13315 whole entry): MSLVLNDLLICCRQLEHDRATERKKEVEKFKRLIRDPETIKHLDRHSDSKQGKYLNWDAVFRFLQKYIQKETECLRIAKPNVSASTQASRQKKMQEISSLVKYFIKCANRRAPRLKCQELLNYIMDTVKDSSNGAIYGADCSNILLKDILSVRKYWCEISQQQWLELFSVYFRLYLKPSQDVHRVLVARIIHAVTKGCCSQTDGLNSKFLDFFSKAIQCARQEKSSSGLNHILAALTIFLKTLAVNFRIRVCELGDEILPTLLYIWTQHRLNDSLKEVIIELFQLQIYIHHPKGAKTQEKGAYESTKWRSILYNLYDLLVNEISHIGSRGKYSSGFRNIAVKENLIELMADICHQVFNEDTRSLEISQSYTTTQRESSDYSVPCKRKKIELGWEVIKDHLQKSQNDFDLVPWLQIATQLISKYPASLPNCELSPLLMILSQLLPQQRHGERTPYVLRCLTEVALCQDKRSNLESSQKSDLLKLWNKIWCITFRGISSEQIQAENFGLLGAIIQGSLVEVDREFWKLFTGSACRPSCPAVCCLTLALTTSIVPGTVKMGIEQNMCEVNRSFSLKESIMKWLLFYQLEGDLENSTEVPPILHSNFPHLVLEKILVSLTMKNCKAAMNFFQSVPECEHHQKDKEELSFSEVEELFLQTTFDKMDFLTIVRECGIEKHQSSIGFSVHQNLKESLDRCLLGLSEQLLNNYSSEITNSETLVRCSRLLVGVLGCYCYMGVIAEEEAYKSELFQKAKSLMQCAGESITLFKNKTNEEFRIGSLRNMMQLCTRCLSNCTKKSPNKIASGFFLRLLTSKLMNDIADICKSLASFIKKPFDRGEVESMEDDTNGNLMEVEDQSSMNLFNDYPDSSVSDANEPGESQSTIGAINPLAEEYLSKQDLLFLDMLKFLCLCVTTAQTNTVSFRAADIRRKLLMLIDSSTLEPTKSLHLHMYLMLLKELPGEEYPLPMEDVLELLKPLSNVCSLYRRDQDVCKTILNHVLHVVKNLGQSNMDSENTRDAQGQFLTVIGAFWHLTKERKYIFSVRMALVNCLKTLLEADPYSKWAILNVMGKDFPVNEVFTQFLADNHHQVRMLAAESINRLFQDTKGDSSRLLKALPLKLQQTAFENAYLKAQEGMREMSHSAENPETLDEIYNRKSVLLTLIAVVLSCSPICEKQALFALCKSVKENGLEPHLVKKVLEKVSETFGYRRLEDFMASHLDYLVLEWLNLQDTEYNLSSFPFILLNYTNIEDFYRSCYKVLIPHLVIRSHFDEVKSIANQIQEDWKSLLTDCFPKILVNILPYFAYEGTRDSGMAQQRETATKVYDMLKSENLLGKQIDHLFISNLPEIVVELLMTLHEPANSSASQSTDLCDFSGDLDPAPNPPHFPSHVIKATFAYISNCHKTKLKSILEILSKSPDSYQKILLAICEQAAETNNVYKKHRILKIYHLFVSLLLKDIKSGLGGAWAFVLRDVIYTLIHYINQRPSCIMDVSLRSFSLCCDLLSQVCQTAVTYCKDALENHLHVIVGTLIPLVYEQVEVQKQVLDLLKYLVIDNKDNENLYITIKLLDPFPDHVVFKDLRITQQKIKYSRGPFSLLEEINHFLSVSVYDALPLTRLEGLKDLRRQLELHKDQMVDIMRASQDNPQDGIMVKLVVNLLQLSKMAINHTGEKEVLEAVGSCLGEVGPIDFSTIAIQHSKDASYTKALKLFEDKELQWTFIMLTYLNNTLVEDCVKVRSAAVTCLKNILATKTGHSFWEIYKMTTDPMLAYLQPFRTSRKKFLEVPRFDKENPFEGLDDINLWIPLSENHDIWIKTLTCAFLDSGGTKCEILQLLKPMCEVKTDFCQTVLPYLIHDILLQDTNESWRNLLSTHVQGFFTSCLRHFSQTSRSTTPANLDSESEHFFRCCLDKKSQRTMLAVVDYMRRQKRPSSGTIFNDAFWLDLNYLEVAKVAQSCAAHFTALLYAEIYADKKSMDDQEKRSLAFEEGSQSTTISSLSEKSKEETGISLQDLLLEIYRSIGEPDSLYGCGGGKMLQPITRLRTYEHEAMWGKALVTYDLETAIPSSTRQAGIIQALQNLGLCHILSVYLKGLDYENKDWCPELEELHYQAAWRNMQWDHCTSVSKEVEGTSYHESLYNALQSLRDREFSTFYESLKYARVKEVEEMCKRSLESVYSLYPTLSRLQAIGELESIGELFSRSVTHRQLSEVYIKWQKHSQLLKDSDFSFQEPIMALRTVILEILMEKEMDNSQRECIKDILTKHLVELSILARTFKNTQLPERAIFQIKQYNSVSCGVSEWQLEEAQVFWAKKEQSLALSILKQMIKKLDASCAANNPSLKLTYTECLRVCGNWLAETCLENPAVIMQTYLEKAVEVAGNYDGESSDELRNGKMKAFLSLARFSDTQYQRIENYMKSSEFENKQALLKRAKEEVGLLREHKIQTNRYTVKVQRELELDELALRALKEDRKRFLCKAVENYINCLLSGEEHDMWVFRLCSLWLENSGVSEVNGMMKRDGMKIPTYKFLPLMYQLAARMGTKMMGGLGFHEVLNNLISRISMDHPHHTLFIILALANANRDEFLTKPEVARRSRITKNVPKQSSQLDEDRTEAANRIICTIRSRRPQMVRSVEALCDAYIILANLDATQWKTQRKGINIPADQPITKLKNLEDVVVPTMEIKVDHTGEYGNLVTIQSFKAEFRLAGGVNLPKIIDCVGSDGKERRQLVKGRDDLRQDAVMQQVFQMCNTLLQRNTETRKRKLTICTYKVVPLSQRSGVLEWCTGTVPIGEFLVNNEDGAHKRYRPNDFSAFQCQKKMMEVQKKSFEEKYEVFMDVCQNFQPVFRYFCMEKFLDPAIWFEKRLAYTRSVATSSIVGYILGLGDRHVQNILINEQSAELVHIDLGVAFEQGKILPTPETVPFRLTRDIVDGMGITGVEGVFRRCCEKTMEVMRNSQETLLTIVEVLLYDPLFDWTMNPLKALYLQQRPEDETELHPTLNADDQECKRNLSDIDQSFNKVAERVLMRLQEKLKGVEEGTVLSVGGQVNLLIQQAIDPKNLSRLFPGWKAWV

| IC50 (ATM) [nM] | Molecule | SER2 (concentration at which the radiation sensitivity-enhancement ratio reaches 2) [1] [nM] |
| --- | --- | --- |
| < 100 | COc1cnc(C(C)Nc2ccc3c(c2)Sc2cccc(-c4cc(N5CCOCC5)cc(=O)[nH]4)c2S3)cn1 (stereo not drawn) [Example 1-12-114, 6-(7-((1-(5-Methoxypyrazin-2-yl)ethyl)amino)thianthren-1-yl)-4-morpholino pyridin-2(1H) one] | 100 to 500 |
| < 100 | O=c1cc(N2CCOCC2)cc(-c2cccc3c2Oc2ccc(NCc4cncc(C5CCCC5)c4)cc2S3)[nH]1 [Example 4-8-15, 6-(8-(((5-Cyclopentylpyridin-3-yl)methyl)amino)phenoxathiin-4-yl)-4-morpholino pyridin-2(1H)-one] | 500 to 2000 |
| < 100 | COc1ccnc(C(C)Nc2ccc3c(c2)Cc2cccc(-c4cc(N5CCOCC5)cc(=O)[nH]4)c2O3)c1 (single isomer, unassigned) [Example 2-14-86-2, 6-(7-((1-(4-methoxypyridin-2-yl)ethyl)amino)-9H-xanthen-4-yl)-4-morpholinopyridin-2(1H)-one] | 100 to 500 |
| < 100 | O=c1cc(N2CCOCC2)cc(-c2cccc3c2Oc2ccc(NCc4cncc(N5CCCC5)c4)cc2S3)[nH]1 [Example 4-4-7, 4-Mmorpholino-6-(8-(((5-(pyrrolidin-1-yl)pyridin-3-yl)methyl)amino)phenoxathiin-4-yl)pyridin-2(1H)-one] | 100 to 500 |
| < 100 | CC(CN1C[C@@H](C)O[C@@H](C)C1)Nc1ccc2c(c1)Sc1cccc(-c3cc(N4CCOCC4)cc(=O)[nH]3)c1S2 (stereo partly drawn) [Example 1-13-12, 6-(7-((1-((2S,6R)-2,6- Dimethylmorpholino)propan-2-yl)amino)thianthren-1-yl)-4-morpholino pyridin-2(1H)-one] | 100 to 500 |
| < 100 | Cc1ccc(C(CCCN(C)C)Nc2ccc3c(c2)Sc2cccc(-c4cc(N5CCOCC5)cc(=O)[nH]4)c2S3)nc1 (single isomer, unassigned) [Example 1-51-3, 6-(7-((4-(Dimethylamino)-1-(5-methylpyridin-2-yl)butyl)amino)thianthren-1-yl)-4-morpholino pyridin-2(1H)-one] | 100 to 500 |
| < 100 | COCC(Nc1ccc2c(c1)Cc1cccc(-c3cc(N4CCOCC4)cc(=O)[nH]3)c1O2)c1cccc(C)n1 (stereo not drawn) [Example 2-14-45, 6-(7-((2-Methoxy-1-(6-methylpyridin-2-yl)ethyl)amino)-9H-xanthen-4-yl)-4-morpholino pyridin-2 (1H)-one] | 100 to 500 |
| < 100 | CNCC(Nc1ccc2c(c1)Sc1cccc(-c3cc(N4CCOCC4)cc(=O)[nH]3)c1S2)c1cccc(C)n1 (stereo not drawn) [Example 1-19-1, 6-(7-((2-(Methylamino)-1-(6-methylpyridin-2-yl)ethyl)amino)thianthren-1-yl)-4-morpholinopyridin-2(1H)-one] | 100 to 500 |
| < 100 | Cc1ccc(CNc2ccc3c(c2)Sc2cccc(-c4cc(N5CCOCC5)cc(=O)[nH]4)c2S3)cn1 [Example 1-12-15, 6-(7-(((6-Methylpyridin-3-yl)methyl)amino)thianthren-1-yl)-4-morpholino pyridin-2 (1H)-one] | 100 to 500 |
| < 100 | Cc1ccc(C(Nc2ccc3c(c2)Sc2cccc(-c4cc(N5CCOCC5)cc(=O)[nH]4)c2S3)[C@H]2CN(CCN(C)C)CCO2)nc1 (single isomer, unassigned) [Example 10-2] | < 100 |
| < 100 | O=c1cc(N2CCOCC2)cc(-c2cccc3c2Sc2ccc(NCc4ccc(Cl)nc4)cc2S3)[nH]1 [Example 1-44-2, 6-(7-(((6-Chloropyridin-3-yl)methyl)amino)thianthren-1-yl)-4-morpholino pyridin-2(1H)-one] | – |
| 100 to 500 | CCOC(=O)c1ccc(CNc2ccc3c(c2)Sc2cccc(-c4cc(N5CCOCC5)cc(=O)[nH]4)c2S3)nc1 [Example 1-12-112, Ethyl 6-(((6-(4-morpholino-6-oxo-1,6-dihydropyridin-2-yl)thianthren-2-yl)amino)methyl)nicotinate] | – |
| 100 to 500 | O=c1cc(N2CCOCC2)cc(-c2cccc3c2Oc2ccc(NCc4ccccn4)cc2S3)[nH]1 [Example 4-4-24, 4-Morpholino-6-(8-((pyridin-2-ylmethyl)amino)phenoxathiin-4-yl) pyridin-2(1H)-one] | – |
| 100 to 500 | Cc1cc(C(C)Nc2ccc3c(c2)Cc2cccc(-c4cc(N5CCOCC5)cc(=O)[nH]4)c2O3)ncn1 (stereo not drawn) [Example 2-14-52, 6-(7-((1-(6-Methylpyrimidin-4-yl)ethyl)amino)-9H-xanthen-4-yl)-4-morpholino pyridin-2 (1H)-one] | – |
| 100 to 500 | CCC(Nc1ccc2c(c1)Sc1cccc(-c3cc(N4CCOCC4)cc(=O)[nH]3)c1S2)[C@H](CC)N1CCOCC1 (stereo partly drawn) [Example 1-21-4, 4-Morpholino-6-(7-(((4S)-4-morpholinohexan-3-yl)amino)thianthren-1-yl) pyridin-2(1H)-one] | – |
| 100 to 500 | CC(CN1CC(F)(F)C1)Nc1ccc2c(c1)Sc1cccc(-c3cc(N4CCOCC4)cc(=O)[nH]3)c1S2 (stereo not drawn) [Example 1-43-4, 6-(7-((1-(3,3-Difluoroazetidin-1-yl)propan-2-yl)amino)thianthren-1-yl)-4-morpholino pyridin-2(1H)-one] | – |
| < 100 | Cc1cnc(C(CCN(C)C)Nc2ccc3c(c2)Sc2cccc(-c4cc(N5CCOCC5)cc(=O)[nH]4)c2O3)cn1 (single isomer, unassigned) [Example 10-7, 6-(8-((3-(Dimethylamino)-1-(5-methylpyrazin-2-yl)propyl)amino)phenoxathiin-4-yl)-4-morpholinopyridin-2(1H)-one] | – |
| 100 to 500 | O=c1cc(N2CCOCC2)cc(-c2cccc3c2Oc2ccc(NC4CCN(CCc5ccccc5)C4)cc2S3)[nH]1 (stereo not drawn) [Example 4-6-1, 4-Morpholino-6-(8-((1-phenethylpyrrolidin-3-yl)amino)phenoxathiin-4-yl)pyridin-2(1H)-one] | – |
| 100 to 500 | Cc1cnc(CNc2ccc3c(c2)Cc2cccc(-c4cc(N5CCOCC5)cc(=O)[nH]4)c2O3)s1 [Example 2-14-47, 6-(7-(((5-Methylthiazol-2-yl)methyl)amino)-9H-xanthen-4-yl)-4-morpholino pyridin-2(1H)-one] | – |
| 100 to 500 | Cc1ccc(C(CO)Nc2ccc3c(c2)Sc2cccc(-c4cc(N5CCOCC5)cc(=O)[nH]4)c2S3)nc1 (stereo not drawn) [Example 1-12-99, 6-(7-((2-Hydroxy-1-(5-methylpyridin-2-yl)ethyl)amino)thianthren-1-yl)-4-morpholino pyridin-2(1H)-one] | – |
| 100 to 500 | CC(CNc1ccc2c(c1)Sc1cccc(-c3cc(N4CCOCC4)cc(=O)[nH]3)c1S2)N1CCOCC1 (single isomer, unassigned) [Example 1-9-2-3, 4-morpholino-6-(7-((2-morpholinopropyl)amino)thianthren-1-yl)pyridin-2(1H)-one] | – |
| 100 to 500 | CC(Nc1ccc2c(c1)Cc1cccc(-c3cc(N4CCOCC4)cc(=O)[nH]3)c1O2)c1cc(CF)ncn1 (stereo not drawn) [Example 2-14-65, 6-(7-((1-(6-(Fluoromethyl)pyrimidin-4-yl)ethyl)amino)-9H-xanthen-4-yl)-4-morpholino pyridin-2(1H)-one] | – |

| Molecule | IC50 (ATM) [nM] | SER2 (concentration at which the radiation sensitivity-enhancement ratio reaches 2) [1] [nM] |
| --- | --- | --- |
| 3-((6-(4-Morpholino-6-oxo- 1,6-dihydropyridin-2-yl) thianthren-2-yl)amino) indolin-2-one [Example 1-12-37] | 100 to 500 | – |

Reference: patent US9586951B2 (FUJIFILM Corporation, priority 2013, dated 2017)
